Target: T1, taste receptor (Homo sapiens, UniProt Q7RTX0+Q8TE23)
T1 construct: endogenous in cells; host or cells: taste cells in the mouths of human panelists (in vivo tasting test)
T1 sequence (Q8TE23 20-839): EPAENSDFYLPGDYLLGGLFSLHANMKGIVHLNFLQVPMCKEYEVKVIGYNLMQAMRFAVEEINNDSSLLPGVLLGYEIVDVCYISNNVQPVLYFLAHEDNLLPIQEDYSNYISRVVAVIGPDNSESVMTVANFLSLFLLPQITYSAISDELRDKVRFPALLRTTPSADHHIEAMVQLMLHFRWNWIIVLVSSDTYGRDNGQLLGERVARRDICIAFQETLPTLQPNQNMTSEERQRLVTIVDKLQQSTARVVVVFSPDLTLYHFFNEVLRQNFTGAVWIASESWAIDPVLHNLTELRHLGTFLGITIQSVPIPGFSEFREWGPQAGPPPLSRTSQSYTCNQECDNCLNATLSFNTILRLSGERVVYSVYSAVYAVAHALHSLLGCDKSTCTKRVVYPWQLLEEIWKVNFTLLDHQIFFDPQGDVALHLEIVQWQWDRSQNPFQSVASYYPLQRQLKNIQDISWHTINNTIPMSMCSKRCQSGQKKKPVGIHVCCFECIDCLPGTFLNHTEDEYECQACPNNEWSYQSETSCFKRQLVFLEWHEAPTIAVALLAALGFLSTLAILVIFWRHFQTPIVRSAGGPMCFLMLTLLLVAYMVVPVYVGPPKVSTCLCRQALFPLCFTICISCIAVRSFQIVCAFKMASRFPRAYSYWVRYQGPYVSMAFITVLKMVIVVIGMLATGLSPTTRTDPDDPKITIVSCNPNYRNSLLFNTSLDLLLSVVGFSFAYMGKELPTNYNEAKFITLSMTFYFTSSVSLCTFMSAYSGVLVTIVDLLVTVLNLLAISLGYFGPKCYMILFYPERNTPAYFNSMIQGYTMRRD
T1 sequence (Q7RTX0 21-852): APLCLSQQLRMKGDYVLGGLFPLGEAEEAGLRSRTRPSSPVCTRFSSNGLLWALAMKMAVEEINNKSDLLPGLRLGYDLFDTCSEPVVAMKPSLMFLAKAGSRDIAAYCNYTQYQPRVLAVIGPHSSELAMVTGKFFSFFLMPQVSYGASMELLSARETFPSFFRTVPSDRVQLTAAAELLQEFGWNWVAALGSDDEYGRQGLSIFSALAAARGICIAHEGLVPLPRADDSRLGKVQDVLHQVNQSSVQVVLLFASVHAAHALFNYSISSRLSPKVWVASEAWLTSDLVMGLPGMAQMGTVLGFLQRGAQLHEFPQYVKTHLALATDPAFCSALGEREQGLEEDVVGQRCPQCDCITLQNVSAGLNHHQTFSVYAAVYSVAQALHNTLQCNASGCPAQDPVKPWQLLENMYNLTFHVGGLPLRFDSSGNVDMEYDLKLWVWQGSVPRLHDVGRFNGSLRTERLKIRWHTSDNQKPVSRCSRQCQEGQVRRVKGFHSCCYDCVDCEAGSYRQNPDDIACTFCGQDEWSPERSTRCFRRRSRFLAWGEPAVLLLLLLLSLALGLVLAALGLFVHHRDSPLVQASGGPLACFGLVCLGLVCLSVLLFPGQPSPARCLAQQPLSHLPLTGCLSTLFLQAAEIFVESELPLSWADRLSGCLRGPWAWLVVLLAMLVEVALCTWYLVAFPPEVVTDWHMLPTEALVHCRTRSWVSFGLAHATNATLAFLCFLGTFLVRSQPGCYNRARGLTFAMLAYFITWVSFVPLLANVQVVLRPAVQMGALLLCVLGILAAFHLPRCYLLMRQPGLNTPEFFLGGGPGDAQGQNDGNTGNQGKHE
Assay: Evaluation of sweet lingering by sensory panel, VAS sweetness intensity rating
Assay type: in vivo
Conditions: with respect to rebaudioside D (reference solution α1, 593 ppm); blend 1:1; N=4; found/theoretical index minus 1
Description: (1) A reference solution α (a beverage containing only a high-intensity sweetener as a sweetener), a reference solution β (a beverage containing another sweetener and having the same sweetness intensity as the reference solution α), and a sample solution γ (a beverage composed of a mixture of the reference solutions α and β at a predetermined ratio as a sample solution) are prepared in individual cups. (2) The mouth is rinsed thoroughly with water and emptied. This rinsing process is repeated four times. (3) A defined amount (10 ml) of the reference solution α, or β, or the sample solution γ is put in the mouth in one breath, and spit out after 5 sec. […]
A sweet lingering was measured by the above-described method of with respect to each of 3 solutions of a reference solution α, a reference solution β, and a sample solution γ composed thereof, which were adjusted to the same sweetness intensity. The order of the measurements was determined randomly for each evaluator. Next, the theoretical value of the sweet lingering of a sample solution γ is determined from the blend ratio (A:B) of the reference solution α to the reference solution β. […]
Each panel evaluated the respective sweet lingering of the reference solutions α1, and β1, and the sample solution γ1 by the above-described method. […]

| Compound | Effect of reducing a sweet lingering |
| --- | --- |
| thaumatin | 43% |
| O=C(CO)[C@@H](O)[C@H](O)[C@H](O)CO [fructose] | 7% |

From patent US20200107568A1, “METHOD FOR REDUCING LINGERING SWEET AFTERTASTE” (SUNTORY HOLDINGS LIMITED, priority 2017, published 2020)
